Molecules are shown by their SMILES.

As a reminder, the melting point is the temperature, or range, at which the solid turns liquid. `CC12CCC3C(CC[C@H]4NC(=O)CCC34C)C1CC[C@@H]2OC1CC1` (stereo partly drawn) [MDL 103,432, 17β-Cyclopropyloxy-4-aza-5α-androstan-3-one]: the melting point fell in the range of 237.5 to 238.5 °C.

Source of the values: patent US6365597B1, “4-aza steroids” (Aventis Pharmaceuticals Inc., priority 1996, dated 2002).
